# Target: T1, Caspase-1 (Homo sapiens, UniProt P29466)
# T1 sequence (P29466 whole entry): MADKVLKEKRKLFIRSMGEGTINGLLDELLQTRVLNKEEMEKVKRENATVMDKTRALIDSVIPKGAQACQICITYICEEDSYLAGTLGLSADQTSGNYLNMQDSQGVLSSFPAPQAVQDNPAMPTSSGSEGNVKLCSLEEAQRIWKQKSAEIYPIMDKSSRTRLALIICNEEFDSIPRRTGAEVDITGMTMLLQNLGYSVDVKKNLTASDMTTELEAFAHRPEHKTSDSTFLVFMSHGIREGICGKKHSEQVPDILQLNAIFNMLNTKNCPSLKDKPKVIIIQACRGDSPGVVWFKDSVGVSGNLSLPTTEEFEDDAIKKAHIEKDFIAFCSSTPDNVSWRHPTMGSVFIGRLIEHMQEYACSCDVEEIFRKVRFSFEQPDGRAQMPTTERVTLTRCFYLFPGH
# Test: Caspase Inhibition Assay
# Conditions: pH 7; 37 °C
# Procedure: The substrate peptides terminating in AMC are processed by caspases with or without inhibitors, and the accumulation of AMC was assessed with a Cytofluor fluorescent plate reader at excitation and emission wavelengths of 380 and 460 nm. Compounds were tested, and full IC50 curves were run for all compounds expressing measurable inhibitory activity.
row,Ki [µM],Structure (SMILES)
1,3.1,Cc1cccc(-c2ccccc2S(=O)(=O)N[C@H](C=O)CC(=O)O)c1 [(3S)-3-{[2-(3-methylphenyl)benzene]sulfonamido}-4-oxobutanoic acid]
2,119,O=C(O)C[C@H](NC(=O)OCc1ccccc1)C(=O)CCCCCc1ccccc1 [(S)-3-Benzyloxycarbonylamino-4-oxo-9-phenyl-nonanoic acid]
3,25,O=C(O)C[C@H](NC(=O)OCc1ccccc1)C(=O)CSCCCc1ccccc1 [(S)-3-Benzyloxycarbonylamino-4-oxo-5-(3-phenyl-propyl-sulfanyl)-pentanoic acid]
4,6.9,O=C[C@H](CC(=O)O)NS(=O)(=O)c1ccccc1-c1cccc2ccccc12 [(3S)-3-{[2-(naphthalen-1-yl)benzene]sulfonamido}-4-oxobutanoic acid]
5,1.9,Cc1cccc(S(=O)(=O)N[C@H](C=O)CC(=O)O)c1-c1ccccc1 [(S)-3-(6-Methyl-biphenyl-2-sulfonylamino)-4-oxo-butyric acid]
6,24,O=C(O)C[C@H](NS(=O)(=O)c1ccccc1)C(=O)CCCCCc1ccccc1 [(3S)-3-benzenesulfonamido-4-oxo-9-phenylnonanoic acid]
7,6.8,Cc1ccccc1-c1ccccc1S(=O)(=O)N[C@H](C=O)CC(=O)O [(S)-3-(2-Methyl-biphenyl-2-sulfonylamino)-4-oxo-butyric acid]
8,7.2,Cc1ccc(-c2ccccc2S(=O)(=O)N[C@H](C=O)CC(=O)O)cc1 [(3S)-3-{[2-(4-methylphenyl)benzene]sulfonamido}-4-oxobutanoic acid]
9,9.4,O=C[C@H](CC(=O)O)NS(=O)(=O)c1ccccc1 [(3S)-3-benzenesulfonamido-4-oxobutanoic acid]
10,24,O=C(O)C[C@H](NS(=O)(=O)c1ccccc1)C(=O)CSCCCc1ccccc1 [(3S)-3-benzenesulfonamido-4-oxo-5-[(3-phenylpropyl)sulfanyl]pentanoic acid]
11,0.011,CC(=O)N[C@@H](Cc1ccc(O)cc1)C(=O)N[C@H](C(=O)N[C@@H](C)C(=O)N[C@@H](CC(=O)O)C(=O)CCCCCc1ccccc1)C(C)C [(3S)-3-[(2S)-2-[(2S)-2-[(2S)-2-acetamido-3-(4-hydroxyphenyl)propanamido]-3-methylbutanamido]propanamido]-4-oxo-9-phenylnonanoic acid]

# From BindingDB's records for doi:10.1016/s0968-0896(01)00250-4 (Pfizer, 2002)
